Assay results: patent US20030087831A1, “1,3,4-Oxadiazolin-2-one derivatives and drugs containing these derivatives as the active ingredient” (priority 1999, published 2003)

What was measured:
[1] = molecular target: T1, Human Neutrophil Elastase (HNE) (Homo sapiens, UniProt P08246); experiment: Inhibitory effects on human neutrophil elastase (HNE); format: biochemical; settings: Dixon plot; substrate MeO-Suc-Ala-Ala-Pro-Val-p-nitroanilide; 0.1 M HEPES buffer pH 8.0; 37° C.
T1 sequence (P08246 30-267): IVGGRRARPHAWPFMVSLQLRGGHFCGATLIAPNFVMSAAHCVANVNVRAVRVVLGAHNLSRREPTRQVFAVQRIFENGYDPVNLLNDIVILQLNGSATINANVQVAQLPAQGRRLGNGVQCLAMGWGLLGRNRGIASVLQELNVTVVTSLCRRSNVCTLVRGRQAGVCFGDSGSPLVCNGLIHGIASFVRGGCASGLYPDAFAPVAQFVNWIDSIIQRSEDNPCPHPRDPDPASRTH
Description: (1) Inhibitory Effects on Human Neutrophil Elastase (HNE)
Various concentrations of test compounds or DMSO as a vehicle were added to 0.1 M HEPES buffer (pH 8.0) containing the synthetic substrate MeO-Suc-Ala-Ala-Pro-Val-p-nitroanilide (final concentration, 0.1, 0.2 or 0.4 mM), 0.5 M sodium chloride solution and 0.1% Polyethyleneglycol 6000 in a final volume of 180 μL. This mixture was pre-incubated at 37° C. for 5 minutes. Then, the reaction was started by the addition of 20 μL of each enzyme solution (final concentration, 0.2U/mL). The hydrolysis rate of substrate (mO.D./minute) was measured by continuously monitoring absorbance at 405 nm for 10 minutes at 30 seconds intervals. The Ki values were determined by Dixon plot.

[2] = tested on: HNE-Induced Lung Hemorrhage; experiment: Inhibitory effect on HNE-induced lung hemorrhage in hamsters; format: in vivo, male Syrian hamsters; settings: Mesocricetus auratus, po, 1 h; administered orally one hour before intratracheal HNE (10 U/100 μL/lung); blood volume in BALF
Description: (2) Inhibitory Effect on HNE-Induced Lung Hemorrhage in Hamsters Test compound or vehicle solution (Polyethyleneglycol 400:ethanol:distilled water=51:16:33) was administered orally to male Syrian hamsters. One hour after administration, animals were anesthetized with sodium pentobarbital (60 mg/kg, i.p.) and their tracheae were exposed. Saline (100 μL/lung) or HNE (10 U/100 μL/lung) were instilled intratracheally. One hour after the instillation of HNE, animals were exsanguinated by cutting the abdominal aorta. The trachea was re-exposed and cannulated, then bronchoalveolar lavage fluid (BALF) was collected by infusing and withdrawing of saline (2.5 mL/animal). Erythrocytes in 0.2 mL of BALF sample were hemolyzed by adding 1.8 mL of distilled water. The lysate was centrifuged (3000 r.p.m., 4° C., 10 minutes), and absorbance of the supernatant at 412 nm was measured spectrophotometrically to calculate blood volume in BALF using a standard curve.

Ki [1] [nM] | Compound | ED50 [2] [mg/kg]
4.27 | COC(=O)N[C@H](C(=O)N1CCC[C@H]1C(=O)N[C@H](C(=O)c1nn(Cc2ccsc2)c(=O)o1)C(C)C)C(C)C [Example 1, (methoxycarbonyl)-L-valyl-N-[(1S)-([3-(thiophen-3-ylmethyl)-1,3,4-oxadiazolin-2-one-5-yl]carbonyl)-2-methylpropyl]-L-prolinamide] | –
3.41 | COC(=O)N[C@H](C(=O)N1CCC[C@H]1C(=O)N[C@H](C(=O)c1nn(-c2ccccc2)c(=O)o1)C(C)C)C(C)C [Example 2, (methoxycarbonyl)-L-valyl-N-[(1S)-([3-phenyl-1,3,4-oxadiazolin-2-one-5-yl]carbonyl)-2-methylpropyl]-L-prolinamide] | 18.6
